What was measured:
CK2 in 786-O cells = details: read-out: IC50 CK2 activity in cell extracts
CDK3 = CDK3 (Homo sapiens, UniProt Q00526); test: biochemical; details: read-out: %Ctrl @ 2000nM
DYRK2 = DYRK2 (Homo sapiens, UniProt Q92630); test: biochemical; details: read-out: %Ctrl @ 2000nM
PCTK1 = PCTK1 (Homo sapiens, UniProt Q00536); test: biochemical; details: read-out: %Ctrl @ 2000nM
PRKCE = PRKCE (Homo sapiens, UniProt Q02156); test: biochemical; details: read-out: %Ctrl @ 2000nM
MAPKAPK2 = MAPKAPK2 (Homo sapiens, UniProt P49137); test: biochemical; details: read-out: %Ctrl @ 2000nM
CAMK2A = CAMK2A (Homo sapiens, UniProt Q9UQM7); test: biochemical; details: read-out: %Ctrl @ 2000nM
TIE2 = TIE2 (Homo sapiens, UniProt Q02763); test: biochemical; details: read-out: %Ctrl @ 2000nM
[1] = tested on: RPTEC (renal proximal tubule epithelial cells); test: cells; details: Homo sapiens, read-out: IC50 cell viability
LIMK1 = LIMK1 (Homo sapiens, UniProt P53667); test: biochemical; details: read-out: %Ctrl @ 2000nM
PIK3CA(Q546K) = PIK3CA(Q546K) (Homo sapiens, UniProt P42336, Q546K); test: biochemical; details: read-out: %Ctrl @ 2000nM
MCF10A cells = details: high concentrations
MLK2 = MLK2 (Homo sapiens, UniProt Q02779); test: biochemical; details: read-out: %Ctrl @ 2000nM
Sequence of MLK2 (Q02779 whole entry): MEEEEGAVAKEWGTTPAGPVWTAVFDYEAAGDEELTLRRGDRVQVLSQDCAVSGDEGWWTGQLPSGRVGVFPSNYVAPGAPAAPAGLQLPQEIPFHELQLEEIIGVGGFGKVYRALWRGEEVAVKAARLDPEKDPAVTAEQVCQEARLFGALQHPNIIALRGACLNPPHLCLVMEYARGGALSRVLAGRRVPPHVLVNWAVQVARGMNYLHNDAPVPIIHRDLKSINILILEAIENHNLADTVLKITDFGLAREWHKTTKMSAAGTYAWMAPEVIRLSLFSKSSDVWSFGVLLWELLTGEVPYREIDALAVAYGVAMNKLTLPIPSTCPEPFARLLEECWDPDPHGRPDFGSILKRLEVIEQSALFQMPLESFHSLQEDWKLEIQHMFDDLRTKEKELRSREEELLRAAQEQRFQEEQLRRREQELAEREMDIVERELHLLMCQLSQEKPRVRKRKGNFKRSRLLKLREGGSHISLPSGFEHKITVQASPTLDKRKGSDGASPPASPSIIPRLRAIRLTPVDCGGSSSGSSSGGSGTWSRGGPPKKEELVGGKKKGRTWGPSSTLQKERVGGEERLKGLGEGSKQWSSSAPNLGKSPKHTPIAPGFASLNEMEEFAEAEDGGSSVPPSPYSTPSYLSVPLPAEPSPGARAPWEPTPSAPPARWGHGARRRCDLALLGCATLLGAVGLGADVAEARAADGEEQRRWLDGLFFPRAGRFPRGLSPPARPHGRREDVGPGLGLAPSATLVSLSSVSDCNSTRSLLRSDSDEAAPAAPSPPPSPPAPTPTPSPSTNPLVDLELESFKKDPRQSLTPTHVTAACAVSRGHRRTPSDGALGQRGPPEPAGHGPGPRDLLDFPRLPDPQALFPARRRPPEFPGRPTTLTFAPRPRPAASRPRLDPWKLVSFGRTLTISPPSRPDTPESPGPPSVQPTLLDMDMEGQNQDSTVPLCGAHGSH

PLK2 = PLK2 (Homo sapiens, UniProt Q9NYY3); test: biochemical; details: read-out: %Ctrl @ 2000nM
Sequence of PLK2 (Q9NYY3 whole entry): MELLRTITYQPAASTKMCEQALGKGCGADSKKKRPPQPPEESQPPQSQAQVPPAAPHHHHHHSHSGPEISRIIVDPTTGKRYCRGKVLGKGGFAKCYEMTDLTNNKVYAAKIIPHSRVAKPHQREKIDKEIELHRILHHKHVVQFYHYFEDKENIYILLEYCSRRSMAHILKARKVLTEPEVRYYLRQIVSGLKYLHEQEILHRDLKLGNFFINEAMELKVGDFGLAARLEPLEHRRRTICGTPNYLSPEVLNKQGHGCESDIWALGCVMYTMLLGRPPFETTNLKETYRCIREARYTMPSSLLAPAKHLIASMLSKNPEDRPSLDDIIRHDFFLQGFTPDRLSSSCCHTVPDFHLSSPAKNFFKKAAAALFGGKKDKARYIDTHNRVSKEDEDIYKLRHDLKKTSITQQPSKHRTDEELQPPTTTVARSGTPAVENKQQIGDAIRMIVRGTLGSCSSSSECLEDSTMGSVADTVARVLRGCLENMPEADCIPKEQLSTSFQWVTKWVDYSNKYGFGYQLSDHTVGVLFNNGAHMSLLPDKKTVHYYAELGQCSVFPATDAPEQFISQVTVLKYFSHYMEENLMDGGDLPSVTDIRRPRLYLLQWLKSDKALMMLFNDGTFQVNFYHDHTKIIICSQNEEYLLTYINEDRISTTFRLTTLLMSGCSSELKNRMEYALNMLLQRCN

ADCK3 = ADCK3 (Homo sapiens, UniProt Q8NI60); test: biochemical; details: read-out: %Ctrl @ 2000nM
[2] = molecular target: RPS6KA4(Kin.Dom.1-N-terminal) (Homo sapiens, UniProt O75676); test: biochemical; details: read-out: %Ctrl @ 2000nM
Sequence of RPS6KA4(Kin.Dom.1-N-terminal) (O75676 1-371 limits assumed): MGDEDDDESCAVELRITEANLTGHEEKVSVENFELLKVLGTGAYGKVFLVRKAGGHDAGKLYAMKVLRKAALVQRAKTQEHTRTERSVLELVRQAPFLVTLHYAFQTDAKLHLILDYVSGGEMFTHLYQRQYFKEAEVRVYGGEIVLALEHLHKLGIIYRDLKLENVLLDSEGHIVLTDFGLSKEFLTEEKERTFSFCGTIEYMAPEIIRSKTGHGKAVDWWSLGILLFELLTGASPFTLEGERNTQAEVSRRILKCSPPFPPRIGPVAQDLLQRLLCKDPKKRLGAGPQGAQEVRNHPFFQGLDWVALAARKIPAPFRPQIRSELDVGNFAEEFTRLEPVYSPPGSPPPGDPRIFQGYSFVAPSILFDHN

DCAMKL2 = DCAMKL2 (Homo sapiens, UniProt Q8N568); test: biochemical; details: read-out: %Ctrl @ 2000nM
EPHB1 = EPHB1 (Homo sapiens, UniProt P54762); test: biochemical; details: read-out: %Ctrl @ 2000nM
Sequence of EPHB1 (P54762 18-984): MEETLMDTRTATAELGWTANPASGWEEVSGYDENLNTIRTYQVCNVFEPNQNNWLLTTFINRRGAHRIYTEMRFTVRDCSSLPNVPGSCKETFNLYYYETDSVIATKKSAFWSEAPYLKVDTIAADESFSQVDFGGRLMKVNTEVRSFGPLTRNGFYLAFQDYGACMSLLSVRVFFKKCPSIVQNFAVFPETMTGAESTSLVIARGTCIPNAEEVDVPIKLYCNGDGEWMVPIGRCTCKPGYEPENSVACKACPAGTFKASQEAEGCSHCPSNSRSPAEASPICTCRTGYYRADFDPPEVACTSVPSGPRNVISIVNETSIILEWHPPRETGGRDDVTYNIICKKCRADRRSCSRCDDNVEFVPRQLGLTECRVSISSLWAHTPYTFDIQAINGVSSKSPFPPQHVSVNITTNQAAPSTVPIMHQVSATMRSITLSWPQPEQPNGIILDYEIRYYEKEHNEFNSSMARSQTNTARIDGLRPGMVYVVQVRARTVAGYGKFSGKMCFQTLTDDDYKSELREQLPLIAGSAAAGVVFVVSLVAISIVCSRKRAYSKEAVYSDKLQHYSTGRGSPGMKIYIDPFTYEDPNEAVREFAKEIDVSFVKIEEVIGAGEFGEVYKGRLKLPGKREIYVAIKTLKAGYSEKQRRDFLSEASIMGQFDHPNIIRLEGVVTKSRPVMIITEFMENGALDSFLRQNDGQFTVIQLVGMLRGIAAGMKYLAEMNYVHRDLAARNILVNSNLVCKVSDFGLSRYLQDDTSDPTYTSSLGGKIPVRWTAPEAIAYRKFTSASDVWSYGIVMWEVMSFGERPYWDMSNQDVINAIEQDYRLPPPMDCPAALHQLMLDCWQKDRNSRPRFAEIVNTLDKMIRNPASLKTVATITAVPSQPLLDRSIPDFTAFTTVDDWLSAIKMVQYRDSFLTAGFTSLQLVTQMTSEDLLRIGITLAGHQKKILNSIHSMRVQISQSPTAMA

EGFR(G719S) = EGFR(G719S) (Homo sapiens, UniProt P00533, G719S); test: biochemical; details: read-out: %Ctrl @ 2000nM
GRK2 = GRK2 (Homo sapiens, UniProt P25098); test: biochemical; details: read-out: %Ctrl @ 2000nM
ALK = ALK (Homo sapiens, UniProt Q9UM73); test: biochemical; details: read-out: %Ctrl @ 2000nM
TAOK3 = TAOK3 (Homo sapiens, UniProt Q9H2K8); test: biochemical; details: read-out: %Ctrl @ 2000nM
[3] = molecular target: JAK3(JH1domain-catalytic) (Homo sapiens, UniProt P52333); test: biochemical; details: read-out: %Ctrl @ 2000nM
STK36 = STK36 (Homo sapiens, UniProt Q9NRP7); test: biochemical; details: read-out: %Ctrl @ 2000nM
PIM3 = PIM3 (Homo sapiens, UniProt Q86V86); test: biochemical; details: read-out: %Ctrl @ 2000nM
ERK5 = ERK5 (Homo sapiens, UniProt Q13164); test: biochemical; details: read-out: %Ctrl @ 2000nM
Sequence of ERK5 (Q13164 whole entry): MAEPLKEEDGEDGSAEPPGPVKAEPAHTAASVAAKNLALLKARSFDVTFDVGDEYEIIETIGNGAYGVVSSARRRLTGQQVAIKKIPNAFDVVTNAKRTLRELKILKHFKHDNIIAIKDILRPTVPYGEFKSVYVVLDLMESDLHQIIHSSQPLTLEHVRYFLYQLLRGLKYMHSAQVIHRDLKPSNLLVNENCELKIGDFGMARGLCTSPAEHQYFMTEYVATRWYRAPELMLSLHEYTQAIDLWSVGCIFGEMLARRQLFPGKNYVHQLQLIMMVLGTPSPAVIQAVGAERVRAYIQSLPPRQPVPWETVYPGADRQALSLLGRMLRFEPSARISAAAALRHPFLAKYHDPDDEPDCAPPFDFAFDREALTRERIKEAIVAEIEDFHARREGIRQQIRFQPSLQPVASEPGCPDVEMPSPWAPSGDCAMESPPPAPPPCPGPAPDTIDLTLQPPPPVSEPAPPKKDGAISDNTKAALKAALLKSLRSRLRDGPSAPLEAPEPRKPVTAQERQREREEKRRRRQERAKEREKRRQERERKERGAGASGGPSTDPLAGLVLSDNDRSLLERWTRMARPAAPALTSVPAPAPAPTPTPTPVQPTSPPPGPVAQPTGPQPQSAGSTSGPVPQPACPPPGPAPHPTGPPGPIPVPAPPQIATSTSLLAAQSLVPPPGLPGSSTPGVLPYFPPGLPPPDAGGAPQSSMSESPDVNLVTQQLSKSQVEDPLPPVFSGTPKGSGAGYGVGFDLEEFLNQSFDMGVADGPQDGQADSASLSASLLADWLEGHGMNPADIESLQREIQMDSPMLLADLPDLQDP

PIK3CA(H1047L) = PIK3CA(H1047L) (Homo sapiens, UniProt P42336, H1047L); test: biochemical; details: read-out: %Ctrl @ 2000nM
ROS1 = ROS1 (Homo sapiens, UniProt P08922); test: biochemical; details: read-out: %Ctrl @ 2000nM
CSK = CSK (Homo sapiens, UniProt P41240); test: biochemical; details: read-out: %Ctrl @ 2000nM
CK2α′ = CK2α′ (Homo sapiens, UniProt P19784); details: 36 ng recombinant catalytic subunits
LRRK2(G2019S) = LRRK2(G2019S) (Homo sapiens, UniProt Q5S007, G2019S); test: biochemical; details: read-out: %Ctrl @ 2000nM
IRAK4 = IRAK4 (Homo sapiens, UniProt Q9NWZ3); test: biochemical; details: read-out: %Ctrl @ 2000nM
[4] = molecular target: EGFR(L747-E749del, A750P) (Homo sapiens, UniProt P00533, A750P/DEL747-749); test: biochemical; details: read-out: %Ctrl @ 2000nM
RET(V804M) = RET(V804M) (Homo sapiens, UniProt P07949, V804M); test: biochemical; details: read-out: %Ctrl @ 2000nM
CSNK1D = CSNK1D (Homo sapiens, UniProt P48730); test: biochemical; details: read-out: %Ctrl @ 2000nM
[5] = molecular target: EGFR(L747-S752del, P753S) (Homo sapiens, UniProt P00533, DEL747-752/P753S); test: biochemical; details: read-out: %Ctrl @ 2000nM
[6] = molecular target: RSK1(Kin.Dom.2-C-terminal) (Homo sapiens, UniProt Q15418); test: biochemical; details: read-out: %Ctrl @ 2000nM
IKK-beta = IKK-beta (Homo sapiens, UniProt O14920); test: biochemical; details: read-out: %Ctrl @ 2000nM
TGFBR2 = TGFBR2 (Homo sapiens, UniProt P37173); test: biochemical; details: read-out: %Ctrl @ 2000nM
Sequence of TGFBR2 (P37173 23-567): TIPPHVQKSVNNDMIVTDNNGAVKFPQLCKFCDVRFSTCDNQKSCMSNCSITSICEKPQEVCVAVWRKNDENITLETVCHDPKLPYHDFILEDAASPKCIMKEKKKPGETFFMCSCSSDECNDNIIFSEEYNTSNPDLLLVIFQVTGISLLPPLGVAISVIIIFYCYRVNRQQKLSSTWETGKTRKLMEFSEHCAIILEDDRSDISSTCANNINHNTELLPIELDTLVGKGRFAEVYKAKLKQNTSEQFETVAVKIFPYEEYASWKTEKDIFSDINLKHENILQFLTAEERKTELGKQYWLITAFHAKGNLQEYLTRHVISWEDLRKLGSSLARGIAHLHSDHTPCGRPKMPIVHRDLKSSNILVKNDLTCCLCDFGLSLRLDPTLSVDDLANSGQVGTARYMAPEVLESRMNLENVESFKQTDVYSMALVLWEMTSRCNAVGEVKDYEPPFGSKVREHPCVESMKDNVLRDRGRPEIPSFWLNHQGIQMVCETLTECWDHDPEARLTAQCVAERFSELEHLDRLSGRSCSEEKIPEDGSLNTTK

PRKG1 = PRKG1 (Homo sapiens, UniProt Q13976); test: biochemical; details: read-out: %Ctrl @ 2000nM
Sequence of PRKG1 (Q13976 whole entry): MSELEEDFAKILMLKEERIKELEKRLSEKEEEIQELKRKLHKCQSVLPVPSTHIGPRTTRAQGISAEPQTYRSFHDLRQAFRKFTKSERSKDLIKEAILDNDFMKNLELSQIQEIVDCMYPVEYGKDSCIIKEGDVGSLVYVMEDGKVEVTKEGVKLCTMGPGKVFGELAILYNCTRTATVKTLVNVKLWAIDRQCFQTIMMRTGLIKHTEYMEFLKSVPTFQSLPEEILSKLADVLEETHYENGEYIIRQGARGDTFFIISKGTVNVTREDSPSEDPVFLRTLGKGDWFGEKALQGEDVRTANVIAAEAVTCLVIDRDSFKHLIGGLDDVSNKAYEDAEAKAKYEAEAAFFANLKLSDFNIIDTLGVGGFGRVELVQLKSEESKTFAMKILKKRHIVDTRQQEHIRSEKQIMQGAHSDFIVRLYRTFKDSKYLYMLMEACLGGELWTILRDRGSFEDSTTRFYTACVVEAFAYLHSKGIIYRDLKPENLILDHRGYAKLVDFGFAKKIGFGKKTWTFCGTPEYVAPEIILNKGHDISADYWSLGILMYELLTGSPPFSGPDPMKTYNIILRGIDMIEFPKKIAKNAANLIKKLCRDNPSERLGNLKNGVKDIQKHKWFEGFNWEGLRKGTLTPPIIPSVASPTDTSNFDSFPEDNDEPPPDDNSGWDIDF

DMPK2 = DMPK2 (Homo sapiens, UniProt Q6DT37); test: biochemical; details: read-out: %Ctrl @ 2000nM

## CC(C)COC(=O)c1[nH]c2ccc(F)cc2c1-c1cn(CC2CCN(CCNS(=O)(=O)c3ccc(CC(C)C)cc3)CC2)nn1 [AB668, isobutyl 5-fluoro-3-(1-((1-(2-((4-isobutylphenyl)sulfonamido)ethyl)piperidin-4-yl)methyl)-1H-1,2,3-triazol-4-yl)-1H-indole-2-carboxylate]
CK2 in 786-O cells
  IC50: 340 ± 70 nM
CDK3
  remaining activity at 2 µM: 100%
DYRK2
  remaining activity at 2 µM: 76%
PCTK1
  remaining activity at 2 µM: 94%
PRKCE
  remaining activity at 2 µM: 98%
MAPKAPK2
  remaining activity at 2 µM: 92%
CAMK2A
  remaining activity at 2 µM: 96%
TIE2
  remaining activity at 2 µM: 83%
[1]
  IC50: > 100000 nM
LIMK1
  remaining activity at 2 µM: 100%
PIK3CA(Q546K)
  remaining activity at 2 µM: 100%
MCF10A cells
  cytotoxicity: no cytotoxicity
MLK2
  remaining activity at 2 µM: 73%
PLK2
  remaining activity at 2 µM: 87%
ADCK3
  remaining activity at 2 µM: 86%
[2]
  remaining activity at 2 µM: 88%
DCAMKL2
  remaining activity at 2 µM: 93%
EPHB1
  remaining activity at 2 µM: 100%
EGFR(G719S)
  remaining activity at 2 µM: 68%
GRK2
  remaining activity at 2 µM: 100%
ALK
  remaining activity at 2 µM: 91%
TAOK3
  remaining activity at 2 µM: 100%
[3]
  remaining activity at 2 µM: 73%
STK36
  remaining activity at 2 µM: 100%
PIM3
  remaining activity at 2 µM: 85%
ERK5
  remaining activity at 2 µM: 88%
PIK3CA(H1047L)
  remaining activity at 2 µM: 98%
ROS1
  remaining activity at 2 µM: 89%
CSK
  remaining activity at 2 µM: 95%
CK2α′
  efficacy on the catalytic activity of CK2α and CK2α′: very similar efficacy
LRRK2(G2019S)
  remaining activity at 2 µM: 86%
IRAK4
  remaining activity at 2 µM: 92%
[4]
  remaining activity at 2 µM: 90%
RET(V804M)
  remaining activity at 2 µM: 76%
CSNK1D
  remaining activity at 2 µM: 89%
[5]
  remaining activity at 2 µM: 98%
[6]
  remaining activity at 2 µM: 100%
IKK-beta
  remaining activity at 2 µM: 91%
TGFBR2
  remaining activity at 2 µM: 90%
Primary hepatocytes
  cytotoxicity: no cytotoxicity
PRKG1
  remaining activity at 2 µM: 85%
DMPK2
  remaining activity at 2 µM: 85%

From publication PMC10838953
